Reference: patent publication US7504420B2, “Compounds which inhibit beta-secretase activity and methods of use” (CoMentis, Inc., priority 2005, dated 2009)

Assays:
memapsin 2 = memapsin 2 (Homo sapiens, UniProt P56817); test: Inhibition of memapsin 2 catalytic activity (Ki); format: biochemical; details: memapsin 2, pH 4, 37° C.; read-out: M2K
Method in brief: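 Run at 37 °C and pH 4: compound and enzyme pre-incubated 20 min before FS-2 fluorogenic substrate started hydrolysis,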

cathepsin D = cathepsin D (Homo sapiens, UniProt P07339); test: Inhibition of cathepsin D catalytic activity (Ki); format: biochemical; details: pH 4.0, 37° C., read-out: CDK
memapsin 1 = target: T1, memapsin 1 (Homo sapiens, UniProt Q9Y5Z0); test: Inhibition of memapsin 1 catalytic activity (Ki); format: biochemical; details: memapsin 1, pH 4.0, 37° C.; read-out: M1K
T1 sequence (Q9Y5Z0 63-518): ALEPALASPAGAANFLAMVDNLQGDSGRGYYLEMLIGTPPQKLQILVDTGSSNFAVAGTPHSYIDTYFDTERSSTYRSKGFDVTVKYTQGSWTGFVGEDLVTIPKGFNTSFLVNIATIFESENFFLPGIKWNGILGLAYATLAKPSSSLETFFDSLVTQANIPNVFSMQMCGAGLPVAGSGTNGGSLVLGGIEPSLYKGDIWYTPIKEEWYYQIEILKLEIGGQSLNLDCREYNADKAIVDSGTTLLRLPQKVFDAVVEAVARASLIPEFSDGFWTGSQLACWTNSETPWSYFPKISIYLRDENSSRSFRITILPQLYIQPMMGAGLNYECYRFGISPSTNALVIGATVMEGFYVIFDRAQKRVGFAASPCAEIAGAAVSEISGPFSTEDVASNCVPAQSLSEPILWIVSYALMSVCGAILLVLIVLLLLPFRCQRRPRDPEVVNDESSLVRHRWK
Procedure: A substrate peptide NH3-ELDLAVEFWHDR-CO2 (SEQ ID NO.:1) (used for inhibition assay of memapsin 2, memapsin 1, and cathepsin D) was dissolved at 2 mg/ml in DMSO and diluted 1:100 in 0.1 M sodium acetate, pH 4.0 just prior to assay. Inhibitor dissolved in DMSO was diluted into 0.1 M sodium acetate, pH 4.0 (1:100 dilution). A […] aliquot of the inhibitor solution in pH 4 buffer was combined with […] of 0.1 M sodium acetate containing 100-200 nM of memapsin 1, memapsin 2, or cathepsin D. Following a pre-incubation at 37° C., the proteolytic assay was initated by addition of […] of the substrate diluted into pH 4 buffer, and incubation continued at 37° C. Aliquots were removed at time intervals, and combined with an equal volume of MALDI-TOF matrix (α-hydroxycinnamic acid in acetone, 20 mg/ml) and immediately spotted in duplicate onto a stainless-steel MALDI sample plate. MALDI-TOF mass spectrometry was performed on a PE Biosystems Voyager DE instrument at the Molecular Biology Resource Center on campus. The instrument was operated at 25,000 accelerating volts in positive mode with a 150 ns delay. Ions with a mass-to-charge ratio (m/z) were detected in the range of 650-2000 atomic mass units. Data were analyzed by the Voyager Data Explorer module to obtain ion intensity data for mass species of substrates and corresponding products in a given mixture. Relative product formation was calculated as the ratio of signal intensity of the product to the sum of signal intensities of both product and the corresponding substrate. Relative product formed per unit time was obtained from non-linear regression analysis of the data representing the initial 15% formation of product using the model: 1−e^−kT, where k was the relative hydrolytic rate constant and T was time in seconds. Alternatively, relative hydrolytic rates were determined using a fluorogenic cleavage assay (Ermolieff, J. et al., Biochemistry, 39: 12450-12456 (2000)). Initial rates from either method were expressed relative to uninhibited controls and the inhibition constant Ki was determined by a non-linear fit to a tight-binding model of competitive inhibition (Bieth, J., Bayer-Symposium V: Proteinase Inhibitors, pp 463-469, Spinger-Varlag, Berlin (1994)). Results are shown in Table 1 above (M2K, CDK, and M1K columns represent, respectively, the K1 values obtained for memapsin 2, cathepsin D and memapsin 1).

[1] = tested on: Aβ production in Chinese hamster ovary cells that over-express human APP695 with the London and Swedish mutations; test: Cellular Aβ IC50 determination (Aβ40 sandwich ELISA); details: Cricetulus griseus, CHO, 24 h, read-out: Cell, Aβ40, CHO cells over-expressing human APP695 (London and Swedish mutations), 24 h

cathepsin D, sequence (P07339 65-412, species assumed): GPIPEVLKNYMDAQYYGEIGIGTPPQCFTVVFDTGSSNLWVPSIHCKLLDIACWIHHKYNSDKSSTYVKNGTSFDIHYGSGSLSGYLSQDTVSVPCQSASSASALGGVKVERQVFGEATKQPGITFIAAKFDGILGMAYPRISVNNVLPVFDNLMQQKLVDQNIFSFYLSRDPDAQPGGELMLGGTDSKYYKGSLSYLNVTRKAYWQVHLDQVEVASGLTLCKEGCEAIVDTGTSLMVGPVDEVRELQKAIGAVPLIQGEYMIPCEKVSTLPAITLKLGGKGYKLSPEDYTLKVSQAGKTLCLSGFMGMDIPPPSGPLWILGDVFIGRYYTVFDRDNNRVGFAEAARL
memapsin 2, sequence (P56817 46-501): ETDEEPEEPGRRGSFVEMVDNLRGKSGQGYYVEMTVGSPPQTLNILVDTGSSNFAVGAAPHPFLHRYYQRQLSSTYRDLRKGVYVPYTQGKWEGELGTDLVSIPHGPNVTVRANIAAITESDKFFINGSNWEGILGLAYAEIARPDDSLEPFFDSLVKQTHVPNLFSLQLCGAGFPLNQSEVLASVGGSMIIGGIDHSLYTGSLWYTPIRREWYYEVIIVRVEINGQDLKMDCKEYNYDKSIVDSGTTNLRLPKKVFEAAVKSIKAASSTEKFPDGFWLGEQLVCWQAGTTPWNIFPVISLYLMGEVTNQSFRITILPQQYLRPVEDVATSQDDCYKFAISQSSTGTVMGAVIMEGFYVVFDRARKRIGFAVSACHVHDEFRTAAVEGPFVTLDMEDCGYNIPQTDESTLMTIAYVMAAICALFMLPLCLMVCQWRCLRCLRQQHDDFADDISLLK

| SMILES | Ki (memapsin 2) [nM] | Ki (cathepsin D) [nM] | Ki (memapsin 1) [nM] | IC50 [1] [nM] |
| --- | --- | --- | --- | --- |
| COc1cccc(CNCC(O)C(Cc2ccccc2)NC(=O)c2cc(C(=O)NC(C)c3ccc(F)cc3)cc(N(C)S(C)(=O)=O)c2)c1 (stereo not drawn) [N1-(1-(4-fluorophenyl)ethyl)-N3-(3-hydroxy-4-(3-methoxybenzylamino)-1-phenylbutan-2-yl)-5-(N-methylmethylsulfonamido)isophthalamide] | < 300 | < 300 | < 300 | < 1000 |
| COc1cccc(CNCC(O)C(Cc2ccccc2)NC(=O)c2cc(C(=O)NCc3nc(C)oc3C)cc(N(C)S(C)(=O)=O)c2)c1 (stereo not drawn) [N1-((2,5-dimethyloxazol-4-yl)methyl)-N3-(3-hydroxy-4-(3-methoxybenzylamino)-1-phenylbutan-2-yl)-5-(N-methylmethylsulfonamido)isophthalamide] | > 501 | > 501 | > 501 | 1000 to 5000 |
| Cc1csc(CN(C)C(=O)c2cccc(C(=O)NC(Cc3ccccc3)C(O)CNCc3cncc(C(C)C)c3)c2)n1 (stereo not drawn) [N1-(3-hydroxy-4-((5-isopropylpyridin-3-yl)methylamino)-1-phenylbutan-2-yl)-N3-methyl-N3-((4-methylthiazol-2-yl)methyl)isophthalamide] | < 300 | < 300 | 301 to 500 | < 1000 |
| COc1cccc(CNCC(O)C(Cc2ccccc2)NC(=O)c2cc(C(=O)NCC3COC4OCCC34)cc(N(C)S(C)(=O)=O)c2)c1 (stereo not drawn) [N1-((hexahydrofuro[2,3-b]furan-3-yl)methyl)-N3-(3-hydroxy-4-(3-methoxybenzylamino)-1-phenylbutan-2-yl)-5-(N-methylmethylsulfonamido)isophthalamide] | 301 to 500 | 301 to 500 | > 501 | > 5000 |
| Cc1csc(CN(C)C(=O)c2cccc(C(=O)NC(Cc3ccccc3)C(O)CNCc3cccc(F)c3)c2)n1 (stereo not drawn) [N1-(4-(3-fluorobenzylamino)-3-hydroxy-1-phenylbutan-2-yl)-N3-methyl-N3-((4-methylthiazol-2-yl)methyl)isophthalamide] | > 501 | < 300 | > 501 | < 1000 |
| COc1cccc(CNCC(O)C(Cc2ccccc2)NC(=O)c2cc(C(=O)NC(C)c3ccccc3)cc([N+](=O)[O-])c2)c1 (stereo not drawn) [N1-(3-hydroxy-4-(3-methoxybenzylamino)-1-phenylbutan-2-yl)-5-nitro-N3-(1-phenylethyl)isophthalamide] | 301 to 500 | < 300 | < 300 | < 1000 |
| Cc1cccc(CNCC(O)C(Cc2ccccc2)NC(=O)c2cccc(C(=O)N(C)Cc3nc(C)cs3)c2)c1 (stereo not drawn) [N1-(3-hydroxy-4-(3-methylbenzylamino)-1-phenylbutan-2-yl)-N3-methyl-N3-((4-methylthiazol-2-yl)methyl)isophthalamide] | > 501 | < 300 | > 501 | < 1000 |
| COc1cccc(C(C)NCC(O)C(Cc2ccccc2)NC(=O)c2cc(C(=O)NC(C)c3ccccc3)cc(N(C)S(C)(=O)=O)c2)c1 (stereo not drawn) [N1-(3-hydroxy-4-(1-(3-methoxyphenyl)ethylamino)-1-phenylbutan-2-yl)-5-(N-methylmethylsulfonamido)-N3-(1-phenylethyl)isophthalamide] | < 300 | < 300 | < 300 | < 1000 |
| COc1cccc(CNCC(O)C(Cc2ccccc2)NC(=O)c2cc(C(=O)NCc3ccccc3)cc(N(C)S(C)(=O)=O)c2)c1 (stereo not drawn) [N1-benzyl-N3-(3-hydroxy-4-(3-methoxybenzylamino)-1-phenylbutan-2-yl)-5-(N-methylmethylsulfonamido)isophthalamide] | < 300 | < 300 | > 501 | < 1000 |
| CC(=O)Nc1cccc(CNCC(O)C(Cc2ccccc2)NC(=O)c2cc(C(=O)NC(C)c3ccccc3)cc(N(C)S(C)(=O)=O)c2)c1 (stereo not drawn) [N1-(4-(3-acetamidobenzylamino)-3-hydroxy-1-phenylbutan-2-yl)-5-(N-methylmethylsulfonamido)-N3-(1-phenylethyl)isophthalamide] | < 300 | 301 to 500 | < 300 | < 1000 |
| COc1cccc(CNCC(O)C(Cc2ccccc2)NC(=O)c2cc(C(=O)NC(C)c3nc(C)oc3C)cc(N(C)S(C)(=O)=O)c2)c1 (stereo not drawn) [N1-(1-(2,5-dimethyloxazol-4-yl)ethyl)-N3-(3-hydroxy-4-(3-methoxybenzylamino)-1-phenylbutan-2-yl)-5-(N-methylmethylsulfonamido)isophthalamide] | > 501 | > 501 | > 501 | 1000 to 5000 |
| CCC(NCC(O)C(Cc1ccccc1)NC(=O)c1cccc(C(=O)N(C)Cc2nc(C)cs2)c1)c1ccccc1 (stereo not drawn) [N1-(3-hydroxy-1-phenyl-4-(1-phenylpropylamino)butan-2-yl)-N3-methyl-N3-((4-methylthiazol-2-yl)methyl)isophthalamide] | > 501 | < 300 | > 501 | 1000 to 5000 |

Continued, values first:

| Ki (memapsin 2) [nM] | Ki (cathepsin D) [nM] | Ki (memapsin 1) [nM] | IC50 [1] [nM] | SMILES |
| --- | --- | --- | --- | --- |
| < 300 | > 501 | > 501 | < 1000 | CC(NC(=O)c1cc(C(=O)NC(Cc2ccccc2)C(O)CNCc2ccccn2)cc(N(C)S(C)(=O)=O)c1)c1ccccc1 (stereo not drawn) [N1-(3-hydroxy-1-phenyl-4-(pyridin-2-ylmethylamino)butan-2-yl)-5-(N-methylmethylsulfonamido)-N3-(1-phenylethyl)isophthalamide] |
| < 300 | > 501 | 301 to 500 | < 1000 | CC(NC(=O)c1cc(C(=O)NC(Cc2ccccc2)C(O)CNCc2ccncc2)cc(N(C)S(C)(=O)=O)c1)c1ccccc1 (stereo not drawn) [N1-(3-hydroxy-1-phenyl-4-(pyridin-4-ylmethylamino)butan-2-yl)-5-(N-methylmethylsulfonamido)-N3-(1-phenylethyl)isophthalamide] |
| < 300 | < 300 | < 300 | < 1000 | CCC(NCC(O)C(Cc1ccccc1)NC(=O)c1cc(C(=O)NC(C)c2ccccc2)cc(N(C)S(C)(=O)=O)c1)c1ccccc1 (stereo not drawn) [N1-(3-hydroxy-1-phenyl-4-(1-phenylpropylamino)butan-2-yl)-5-(N-methylmethylsulfonamido)-N3-(1-phenylethyl)isophthalamide] |
| < 300 | < 300 | < 300 | < 1000 | CC(NC(=O)c1cc(C(=O)NC(Cc2ccccc2)C(O)CNCc2ccccc2O)cc(N(C)S(C)(=O)=O)c1)c1ccccc1 (stereo not drawn) [N1-(3-hydroxy-4-(2-hydroxybenzylamino)-1-phenylbutan-2-yl)-5-(N-methylmethylsulfonamido)-N3-(1-phenylethyl)isophthalamide] |
| < 300 | > 501 | 301 to 500 | < 1000 | CC(NC(=O)c1cc(C(=O)NC(Cc2ccccc2)C(O)CNCc2cccnc2)cc(N(C)S(C)(=O)=O)c1)c1ccccc1 (stereo not drawn) [N1-(3-hydroxy-1-phenyl-4-(pyridin-3-ylmethylamino)butan-2-yl)-5-(N-methylmethylsulfonamido)-N3-(1-phenylethyl)isophthalamide] |
| > 501 | > 501 | > 501 | < 1000 | COC(=O)c1cccc(CNCC(O)C(Cc2ccccc2)NC(=O)c2cc(C(=O)NC(C)c3ccccc3)cc(N(C)S(C)(=O)=O)c2)c1 (stereo not drawn) [methyl 3-((2-hydroxy-3-(3-(N-methylmethylsulfonamido)-5-(1-phenylethylcarbamoyl)benzamido)-4-phenylbutylamino)methyl)benzoate] |
